Details: Liquid, pendant drop method

C [methane] + O
Details | interfacial tension [mN/m]
311 K, 3390 kPa | 66.03
311 K, 7540 kPa | 59.95
311 K, 14380 kPa | 57.94
311 K, 28210 kPa | 52.29
311 K, 44730 kPa | 51.43
311 K, 61300 kPa | 49.28
311 K, 81600 kPa | 50.39
373.2 K, 3650 kPa | 54.76
373.2 K, 10070 kPa | 50.64
373.2 K, 21140 kPa | 48.29
373.2 K, 30540 kPa | 45.02
373.2 K, 51020 kPa | 42.2
373.2 K, 60310 kPa | 41.61
373.2 K, 71050 kPa | 41.92
373.2 K, 82760 kPa | 41.93
423.2 K, 2740 kPa | 49.23
423.2 K, 7290 kPa | 46.41
423.2 K, 17170 kPa | 42.69
423.2 K, 27790 kPa | 40.72
423.2 K, 38470 kPa | 38.35
423.2 K, 48440 kPa | 39.43
423.2 K, 62280 kPa | 38.6
423.2 K, 75910 kPa | 39.19
423.2 K, 89770 kPa | 38.67
473.2 K, 2410 kPa | 40.35
473.2 K, 14090 kPa | 34.86
473.2 K, 21220 kPa | 34.2
473.2 K, 34790 kPa | 32.44
473.2 K, 51540 kPa | 30.53
473.2 K, 70120 kPa | 31.46
473.2 K, 83440 kPa | 30.74
